Assays:
[1] = molecular target: KRas(G12V) (Homo sapiens (Human), UniProt P01116, G12V); test: KRas(G12V) GDP HTRF (BODIPY-GDP exchange TR-FRET); type: biochemical
[2] = molecular target: KRas (Homo sapiens (Human), UniProt P01116); test: KRas GDP HTRF (BODIPY-GDP exchange TR-FRET); type: biochemical
Summary of the method: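 Inhibition of SOS1-mediated exchange of BODIPY-GDP on KRAS G12D, started with 3 nM recombinant human SOS1 and 300 nM BODIPY-GDP and read after 60 min. TR-FRET excitation 337 nm, ratio 520/490 nm ×10,000. IC50 from 4-parameter Hill fit of normalized data.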

[3] = tested on: SW480 cells; test: SW480 proliferation assay; type: cell-based; conditions: Homo sapiens, SW480, SW480; read-out: SW480 Prolif IC50 (G12V)
[4] = tested on: PC-9 cells; test: PC9 proliferation assay; type: cell-based, human; conditions: Homo sapiens, PC-9, PC9; read-out: PC9 Prolif IC50 (G12V)

KRas(G12V), sequence (P01116-2 other isoform, or with tags, fused parts or gaps G12V): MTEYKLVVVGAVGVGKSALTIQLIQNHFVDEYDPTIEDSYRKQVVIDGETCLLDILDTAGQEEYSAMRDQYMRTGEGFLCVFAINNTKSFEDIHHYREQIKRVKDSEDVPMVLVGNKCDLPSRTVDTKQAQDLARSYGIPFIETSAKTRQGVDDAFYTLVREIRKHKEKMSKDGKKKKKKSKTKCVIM
KRas, sequence (P01116-2 other isoform, or with tags, fused parts or gaps): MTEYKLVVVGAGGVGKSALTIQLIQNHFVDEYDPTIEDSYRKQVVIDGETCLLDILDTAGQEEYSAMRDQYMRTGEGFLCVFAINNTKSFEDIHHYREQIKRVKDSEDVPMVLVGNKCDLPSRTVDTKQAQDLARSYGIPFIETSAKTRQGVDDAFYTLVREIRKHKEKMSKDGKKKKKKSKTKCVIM

Work on `Cc1cc(N)nc(-c2c(Cl)c3c4c(nc(OC[C@@H]5C[C@@H](F)CN5C)nc4c2F)N([C@@H]2CCCc4ccnc(N)c42)CCO3)c1C(F)(F)F` (atropisomer, axis not shown) [Example 132, (R)-8-((R)-9-(6-amino-4-methyl-3-(trifluoromethyl)pyridin-2-yl)-8-chloro-10-fluoro-2-(((2S,4R)-4-fluoro-1-methylpyrrolidin-2-yl)methoxy)-5,6-dihydro-4H-[1,4]oxazepino[5,6,7-de]quinazolin-4-yl)-5,6,7,8-tetrahydroisoquinolin-1-amine] yielded an IC50 [1] of 0.13 nM, an IC50 [2] of 0.273 nM and an IC50 [3] of 39 nM. It also gave an IC50 [4] of 3200 nM.
`Cc1cc(N)nc(-c2c(Cl)c3c4c(nc(OCCN5CCN(C)CC5)nc4c2F)N([C@H](C)c2cccnc2N)CCO3)c1C(F)(F)F` (atropisomer, axis not shown) [Example 135, 6-((R)-4-((R)-1-(2-aminopyridin-3-yl)ethyl)-8-chloro-10-fluoro-2-(2-(4-methylpiperazin-1-yl)ethoxy)-5,6-dihydro-4H-[1,4]oxazepino[5,6,7-de]quinazolin-9-yl)-4-methyl-5-(trifluoromethyl)pyridin-2-amine] was tested, and the IC50 [1] was 0.08 nM, the IC50 [2] was 0.37 nM and the IC50 [3] was 390 nM. It also gave an IC50 [4] of 1500 nM.
Molecule `Cc1cc(N)nc(-c2c(Cl)c3c4c(nc(OCCn5cccn5)nc4c2F)N([C@H](C)c2cccnc2N)CCO3)c1C(F)(F)F` (atropisomer, axis not shown) [Example 136, 6-((R)-2-(2-(1H-pyrazol-1-yl)ethoxy)-4-((R)-1-(2-aminopyridin-3-yl)ethyl)-8-chloro-10-fluoro-5,6-dihydro-4H-[1,4]oxazepino[5,6,7-de]quinazolin-9-yl)-4-methyl-5-(trifluoromethyl)pyridin-2-amine] has an IC50 [1] of 0.21 nM, an IC50 [2] of 0.83 nM and an IC50 [3] of 63 nM. It also gave an IC50 [4] of 8600 nM.
For `Cc1cc(N)nc(-c2c(Cl)c3c4c(nc(OCC5(C#N)CCOCC5)nc4c2F)N([C@H](C)c2cccnc2N)CCO3)c1C(F)(F)F` (atropisomer, axis not shown) [Example 142, 4-((((R)-9-(6-amino-4-methyl-3-(trifluoromethyl)pyridin-2-yl)-4-((R)-1-(2-aminopyridin-3-yl)ethyl)-8-chloro-10-fluoro-5,6-dihydro-4H-[1,4]oxazepino[5,6,7-de]quinazolin-2-yl)oxy)methyl)tetrahydro-2H-pyran-4-carbonitrile], the IC50 [1] was 0.31 nM, the IC50 [2] was 1.1 nM and the IC50 [3] was 120 nM. The IC50 [4] was 7700 nM.
In the case of `Cc1cc(N)nc(-c2c(Cl)c3c4c(nc(OCC5(C)CCOCC5)nc4c2F)N([C@H](C)c2cccnc2N)CCO3)c1C(F)(F)F` (atropisomer, axis not shown) [Example 144, 6-((R)-4-((R)-1-(2-aminopyridin-3-yl)ethyl)-8-chloro-10-fluoro-2-((4-methyltetrahydro-2H-pyran-4-yl)methoxy)-5,6-dihydro-4H-[1,4]oxazepino[5,6,7-de]quinazolin-9-yl)-4-methyl-5-(trifluoromethyl)pyridin-2-amine], the IC50 [1] is reported as 1.4 nM, the IC50 [2] is reported as 4.4 nM and the IC50 [3] is reported as 520 nM. For the same molecule, the IC50 [4] was 6000 nM.
In the case of `Cc1cc(N)nc(-c2c(Cl)c3c4c(nc(OC[C@H]5C[C@H](O)C5)nc4c2F)N([C@H](C)c2cccnc2N)CCO3)c1C(F)(F)F` (atropisomer, axis not shown) [Example 145, (1R,3r)-3-((((R)-9-(6-amino-4-methyl-3-(trifluoromethyl)pyridin-2-yl)-4-((R)-1-(2-aminopyridin-3-yl)ethyl)-8-chloro-10-fluoro-5,6-dihydro-4H-[1,4]oxazepino[5,6,7-de]quinazolin-2-yl)oxy)methyl)cyclobutan-1-ol], the IC50 [1] is reported as 0.56 nM, the IC50 [2] is reported as 1.2 nM and the IC50 [3] is reported as 450 nM. It also gave an IC50 [4] of 20000 nM.
Work on `Cc1cc(N)nc(-c2c(Cl)c3c4c(nc(OC[C@H]5C[C@@H](O)C5)nc4c2F)N([C@H](C)c2cccnc2N)CCO3)c1C(F)(F)F` (atropisomer, axis not shown) [Example 146, (1S,3s)-3-((((R)-9-(6-amino-4-methyl-3-(trifluoromethyl)pyridin-2-yl)-4-((R)-1-(2-aminopyridin-3-yl)ethyl)-8-chloro-10-fluoro-5,6-dihydro-4H-[1,4]oxazepino[5,6,7-de]quinazolin-2-yl)oxy)methyl)cyclobutan-1-ol] yielded an IC50 [1] of 0.61 nM, an IC50 [2] of 1.5 nM and an IC50 [3] of 510 nM. For the same molecule, the IC50 [4] was 19000 nM.
Molecule `Cc1cc(N)nc(-c2c(Cl)c3c4c(nc(OCC56CCCN5CCC6)nc4c2F)N([C@H](C)c2cccnc2N)CCO3)c1C(F)(F)F` (atropisomer, axis not shown) [Example 147, 6-((R)-4-((R)-1-(2-aminopyridin-3-yl)ethyl)-8-chloro-10-fluoro-2-((tetrahydro-1H-pyrrolizin-7a(5H)-yl)methoxy)-5,6-dihydro-4H-[1,4]oxazepino[5,6,7-de]quinazolin-9-yl)-4-methyl-5-(trifluoromethyl)pyridin-2-amine] has an IC50 [1] of 0.06 nM, an IC50 [2] of 0.18 nM and an IC50 [3] of 44 nM. It also gave an IC50 [4] of 1300 nM.
Work on `Cc1cc(N)nc(-c2c(Cl)c3c4c(nc(OCC5CCN(S(C)(=O)=O)CC5)nc4c2F)N([C@H](C)c2cccnc2N)CCO3)c1C(F)(F)F` (atropisomer, axis not shown) [Example 148, 6-((R)-4-((R)-1-(2-aminopyridin-3-yl)ethyl)-8-chloro-10-fluoro-2-((1-(methylsulfonyl)piperidin-4-yl)methoxy)-5,6-dihydro-4H-[1,4]oxazepino[5,6,7-de]quinazolin-9-yl)-4-methyl-5-(trifluoromethyl)pyridin-2-amine] yielded an IC50 [1] of 1.1 nM, an IC50 [2] of 3.6 nM and an IC50 [3] of 410 nM. It also gave an IC50 [4] of 9600 nM.
In the case of `Cc1cc(N)nc(-c2c(Cl)c3c4c(nc(OCCF)nc4c2F)N([C@H](C)c2cccnc2N)CCO3)c1C(F)(F)F` (atropisomer, axis not shown) [Example 151, 6-((R)-4-((R)-1-(2-aminopyridin-3-yl)ethyl)-8-chloro-10-fluoro-2-(2-fluoroethoxy)-5,6-dihydro-4H-[1,4]oxazepino[5,6,7-de]quinazolin-9-yl)-4-methyl-5-(trifluoromethyl)pyridin-2-amine], the IC50 [1] is reported as 1.1 nM, the IC50 [2] is reported as 5.4 nM and the IC50 [3] is reported as 700 nM. For the same molecule, the IC50 [4] was 14000 nM.
`Cc1cc(N)nc(-c2c(Cl)c3c4c(nc(OCC5CCOCC5)nc4c2F)N([C@H](C)c2cccnc2N)CCO3)c1C(F)(F)F` (atropisomer, axis not shown) [Example 152, 6-((R)-4-((R)-1-(2-aminopyridin-3-yl)ethyl)-8-chloro-10-fluoro-2-((tetrahydro-2H-pyran-4-yl)methoxy)-5,6-dihydro-4H-[1,4]oxazepino[5,6,7-de]quinazolin-9-yl)-4-methyl-5-(trifluoromethyl)pyridin-2-amine] gave an IC50 [1] of 0.75 nM, an IC50 [2] of 2.3 nM and an IC50 [3] of 180 nM. For the same molecule, the IC50 [4] was 5600 nM.
With `Cc1cc(N)nc(-c2c(Cl)c3c4c(nc(OCC5(C#N)CC5)nc4c2F)N([C@H](C)c2cccnc2N)CCO3)c1C(F)(F)F` (atropisomer, axis not shown) [Example 153, 1-((((R)-9-(6-amino-4-methyl-3-(trifluoromethyl)pyridin-2-yl)-4-((R)-1-(2-aminopyridin-3-yl)ethyl)-8-chloro-10-fluoro-5,6-dihydro-4H-[1,4]oxazepino[5,6,7-de]quinazolin-2-yl)oxy)methyl)cyclopropane-1-carbonitrile] the IC50 [1] was 0.78 nM, the IC50 [2] was 3.3 nM and the IC50 [3] was 190 nM. The IC50 [4] was 14000 nM.
In the case of `COc1nc2c3c(c(Cl)c(-c4nc(N)cc(C)c4C(F)(F)F)c(F)c3n1)OCCN2[C@H](C)c1cccnc1N` (atropisomer, axis not shown) [Example 155, 6-((R)-4-((R)-1-(2-aminopyridin-3-yl)ethyl)-8-chloro-10-fluoro-2-methoxy-5,6-dihydro-4H-[1,4]oxazepino[5,6,7-de]quinazolin-9-yl)-4-methyl-5-(trifluoromethyl)pyridin-2-amine], the IC50 [1] is reported as 0.45 nM, the IC50 [2] is reported as 2.5 nM and the IC50 [3] is reported as 220 nM. It also gave an IC50 [4] of 10000 nM.
Work on `Cc1cc(N)nc(-c2c(Cl)c3c4c(nc(OCCO)nc4c2F)N([C@H](C)c2cccnc2N)CCO3)c1C(F)(F)F` (atropisomer, axis not shown) [Example 156, 2-(((R)-9-(6-amino-4-methyl-3-(trifluoromethyl)pyridin-2-yl)-4-((R)-1-(2-aminopyridin-3-yl)ethyl)-8-chloro-10-fluoro-5,6-dihydro-4H-[1,4]oxazepino[5,6,7-de]quinazolin-2-yl)oxy)ethan-1-ol] yielded an IC50 [1] of 0.19 nM, an IC50 [2] of 0.65 nM and an IC50 [3] of 310 nM. For the same molecule, the IC50 [4] was 16000 nM.
Molecule `Cc1cc(N)nc(-c2c(Cl)c3c4c(nc(OC[C@H]5CC[C@@H]6COCCN65)nc4c2F)N([C@H](C)c2cccnc2N)CCO3)c1C(F)(F)F` (atropisomer, axis not shown; (aR)) [Example 87b, 6-((R)-4-((R)-1-(2-aminopyridin-3-yl)ethyl)-8-chloro-10-fluoro-2-(((6R,8aR)-hexahydro-1H-pyrrolo[2,1-c][1,4]oxazin-6-yl)methoxy)-5,6-dihydro-4H-[1,4]oxazepino[5,6,7-de]quinazolin-9-yl)-4-methyl-5-(trifluoromethyl)pyridin-2-amine] has an IC50 [1] of 0.089 nM, an IC50 [2] of 0.18 nM and an IC50 [3] of 28 nM. For the same molecule, the IC50 [4] was 3100 nM.
